Measurements published in article PMC8226839, “New Perspectives in the Antimicrobial Activity of the Amphibian Temporin B: Peptide Analogs Are Effective Inhibitors of Candida albicans Growth” (Journal of Fungi, 2021).
Like-named read-outs stand apart in the source and are kept apart here. Square brackets hold non-standard residues; d marks the D form. Peptide text beside a SMILES is read from it.

How the values were obtained:
in vitro = type: cell-based; details: human, 3D Phenion OS-REp reconstructed epidermis model
Method: The TB peptide analogs were tested for their skin irritation potential in vitro using the three-dimensional (3D) Phenion® open-source reconstructed epidermis model (Henkel, Düsseldorf, Germany) with slight adaptation from Groeber et al. and Mewes et al. [22, 23] and the test guidelines 439 of the Organization for Economic Cooperation and Development (OECD) [24]. In brief, the epidermal tissue models were equilibrated in 6-well plates ([…] , Hamburg, Germany) with 1.5 mL of Phenion® OS_REp air-liquid interface (ALI) medium (Henkel, Düsseldorf, Germany) for 24 h at 37 °C, 5% (v/v) CO2. Then, the medium was replaced by fresh medium and 25 μL Dulbecco's phosphate-buffered saline (D-PBS) containing 50 μg of the peptide, respectively, was dispensed directly on top of the models and spread gently over the surface with sterile glass applicators. […] All samples and controls were prepared in triplicates. After incubation at 25 °C for 35 min, each model was thoroughly dipped six times in 1 L of D-PBS. […] From each tissue sample, 200 μL of the formazan extraction solution were transferred in duplicates to a 96-well microtiter plate and the optical density was measured in a multimode plate reader (FLUOstar Omega, BMG Labtech, Ortenberg, Germany) at a wavelength of 550 nm. The relative metabolic activity was calculated from two replicates per tissue and three tissues per assay.

Candida parapsilosis = details: 24 h
[1] = system: Candida albicans 27700 (fluconazole-resistant clinical isolate); details: 27700 (fluconazole-resistant clinical isolate, 24 h)
Staphylococcus aureus = details: 24 h
C. albicans cells = type: cell-based, Candida albicans
Method: (§1) At the time points 5 min, 6 h and 24 h, aliquots were taken and plated in appropriate dilutions onto PDA plates in duplicates to stimulate the growth of viable cells. The colony-forming units (CFU) were counted after incubation at 30 °C for 24 h. […] To determine the efficacy of the TB peptide analogs on sessile C. albicans cells, biofilm formation was induced by adding 100 μL of C. albicans (1 × 10^6 cells mL^−1) in 0.05 × PDB to each well of a 96-well, flat-bottom microtiter plate (Nunclon Delta, Thermo Fisher Scientific, Waltham, MA, USA) and incubating for 24 h at 30 °C. The formed biofilm was then evaluated microscopically for cell attachment and pseudo-hyphae formation before proceeding with peptide application. The serially diluted TB peptide analogs (in 0.05 × PDB) were added to the biofilm in 100 μL aliquots to reach a final volume of 200 μL per well. For the positive control, 10 µg mL^−1 Amphotericin B (Sigma-Aldrich, St. Louis, MO, USA) was used, while 0.05 × PDB was added to the growth control. After further incubation for 24 h at 30 °C, the biofilm was disrupted by vigorous pipetting, and 20 µL of the detached cells were mixed with 80 µL of 0.05 × PDB. […] The effectiveness of the TB peptide analogs to reduce biofilm formation was calculated by comparing the number of CFU at different peptide concentrations with that of the untreated growth control. […]

Candida albicans [2] = details: 24 h
Candida glabrata = details: 24 h
C. albicans = experiment: Broth microdilution, impact of protease inactivation conditions (growth %); type: cell-based, Candida albicans; details: 0.125 µM protease alone + 100 °C, 15 min
IL-1α = experiment: Release of proinflammatory cytokine IL-1α from Phenion OS-REp model (ELISA); details: culture medium 24 h after 35 min exposure; 50 μg peptide per model (SDS 5% w/v)
[3] = system: sessile C. albicans cells (biofilm); experiment: Survival of sessile cells of a 24 h old biofilm (CFU plating); type: cell-based, Candida albicans; details: 10 µg mL^−1, 24 h exposure; untreated growth control 100%
Method: as §1

Candida albicans [4] = experiment: microbe, parasite or virus in culture

Row | Compound | viability at 35 min, 2000 µg/mL (in vitro) [%] | IC90 (Candida parapsilosis) [nM] | IC90 [1] [nM] | IC90 (Staphylococcus aureus) [nM] | IC90 (Candida albicans [2]) [nM] | IC90 (Candida glabrata) [nM] | further results
1 | CC[C@H](C)[C@H](NC(=O)[C@@H]1CCCN1C(=O)[C@H](CC(C)C)NC(=O)[C@H](CC(C)C)NC(=O)[C@H](CCCCN)NC(=O)[C@@H](N)CCCCN)C(=O)N[C@H](C(=O)N[C@@H](CCCCN)C(=O)N[C@@H](CC(N)=O)C(=O)N[C@@H](CC(C)C)C(=O)N[C@@H](CC(C)C)C(=O)N[C@@H](CCCCN)C(=O)N[C@@H](CO)C(=O)N[C@@H](CC(C)C)C(=O)N[C@@H](CC(C)C)C(N)=O)C(C)C [TB_KKG6K] (H-KKLLPIVKNLLKSLL-NH2) | 94.2 ± 2.9 | 1800 | 1800 | 3600 | 1800 | 1800 | killing (CFU) (C. albicans cells; 6 h): 100%
2 | CC[C@H](C)[C@H](NC(=O)[C@@H]1CCCN1C(=O)[C@H](CC(C)C)NC(=O)[C@H](CC(C)C)NC(=O)[C@@H](CCCCN)NC(=O)[C@H](N)CCCCN)C(=O)N[C@H](C(=O)N[C@H](CCCCN)C(=O)N[C@@H](CC(N)=O)C(=O)N[C@@H](CC(C)C)C(=O)N[C@@H](CC(C)C)C(=O)N[C@H](CCCCN)C(=O)N[C@@H](CO)C(=O)N[C@@H](CC(C)C)C(=O)N[C@@H](CC(C)C)C(N)=O)C(C)C [D-Lys_TB_KKG6K] (H-[dK][dK]LLPIV[dK]NLL[dK]SLL-NH2) | 91.4 ± 2.9 | 1800 | 1800 | 14400 | 1800 | 1800 | killing (CFU) (C. albicans cells; 24 h): 100%
3 | CC[C@H](C)[C@H](NC(=O)[C@@H]1CCCN1C(=O)[C@H](CC(C)C)NC(=O)[C@H](CC(C)C)NC(=O)[C@H](CCCCN)NC(=O)[C@H](CCCCN)NC(=O)[C@H](CCCCN)NC(=O)[C@@H](N)CCCCN)C(=O)N[C@H](C(=O)N[C@@H](CC(N)=O)C(=O)N[C@@H](CC(C)C)C(=O)N[C@@H](CC(C)C)C(=O)N[C@@H](CO)C(=O)N[C@@H](CC(C)C)C(=O)N[C@@H](CC(C)C)C(N)=O)C(C)C [TB_KKG6K^scrambled] (H-KKKKLLPIVNLLSLL-NH2; N-terminus assumed) | – | – | – | 7200 | 1800 | – | –
4 | Chymotrypsin | – | – | – | – | – | – | Growth [%] (C. albicans): 76.1 ± 6.9%
5 | CCCCCCCCCCCCOS(=O)(=O)[O-].[Na+] [5% SDS, sodium dodecyl sulfate] | – | – | – | – | – | – | IL-1α (IL-1α): 199.2 ± 47.7 pg/mL
6 | C[C@@H]1[C@H](O)[C@@H](C)/C=C/C=C/C=C/C=C/C=C/C=C/C=C/[C@H](O[C@@H]2O[C@H](C)[C@@H](O)[C@H](N)[C@@H]2O)C[C@@H]2O[C@](O)(C[C@@H](O)C[C@@H](O)[C@H](O)CC[C@@H](O)C[C@@H](O)CC(=O)O[C@H]1C)C[C@H](O)[C@H]2C(=O)O [Amphotericin B] | – | – | – | – | – | – | CFU [%] [3]: 0 ± 0 %; IC90 (Candida albicans [4]): 0.055 µg/mL; IC90 (Candida albicans [4]; 24 h): 60 nM
